Data published in article PMC12185845, “How allosteric mutations control ligand binding in Lipocalin protein: odorant binding protein as a test case” (Cellular and Molecular Life Sciences: CMLS, 2025).
Residue numbers refer to the chain shown, from its start.

Columns and labels:
Assay in all cases: isothermal titration calorimetry, single-site fit
Type in all cases: binding
rOBP1 (rOBP1-wt) [1] = biological target: T1, rOBP1 (rOBP1-wt) (Rattus norvegicus, UniProt P08937); conditions: 50 mM sodium phosphate, pH 7.5, 25 °C; ligand up to the millimolar range; distal allosteric position
T1 construct: gene Obp1f; S7
T1 sequence (P08937 16-172): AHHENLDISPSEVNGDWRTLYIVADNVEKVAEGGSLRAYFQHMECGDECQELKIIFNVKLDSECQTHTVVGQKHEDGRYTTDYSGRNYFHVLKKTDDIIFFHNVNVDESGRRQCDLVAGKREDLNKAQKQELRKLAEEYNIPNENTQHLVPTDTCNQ

rOBP1 (rOBP1-wt) [2] = biological target: T1, rOBP1 (rOBP1-wt); conditions: 50 mM sodium phosphate, pH 7.5, 25 °C
rOBP1 (rOBP1-wt) [3] = biological target: T2, rOBP1 (rOBP1-wt) (Rattus norvegicus, UniProt P08937, S50C/Y98C, form not given); conditions: 50 mM sodium phosphate, pH 7.5, 25 °C
T2 construct: gene Obp1f; S7
T2 sequence (P08937 16-172 S50C/Y98C): T1 sequence (P08937 16-172) with S35C, Y83C

| Structure (SMILES) | binding (ITC) (rOBP1 (rOBP1-wt) [1]) | Kd (rOBP1 (rOBP1-wt) [2]) [nM] | binding (ITC) (rOBP1 (rOBP1-wt) [3]) |
| --- | --- | --- | --- |
| Cc1ccc(C(C)C)c(O)c1 [thymol] | indicating a complete loss of affinity for all ligands | 441 | total loss of binding for the three odorants as no heat change was observed |
| C=CCc1ccc(O)c(OC)c1 [eugenol] | indicating a complete loss of affinity for all ligands | 60 | total loss of binding for the three odorants as no heat change was observed |
